Data from US20220175734A1, “USING PARASYMPATHOMIMETIC DRUGS ALONE OR, IN COMBINATION WITH ONE OR MORE ALPHA AGONISTS IN PSEUDOPHAKIC PATIENTS, TO CREATE MULTI-FOCALITY” (Visus Therapeutics, Inc., priority 2019, published 2022).
“And” between values parts separate entries of the source, which are not always exact repeats. Equal entries are not always repeated.

Columns and labels:
[1] = system: naturally emmetropic and presbyopic subjects; assay: Example 13 crossover trial: pupil size (Colvard infrared pupilometer) (Table 13); type: in vivo, human; details: for PS 1-h / PS 2-h / PS 4-h / PS 8-h / PS Pre-treatment: mean pupil size, ten subjects; for PS Pre-treatment: before treatment
From the text: (§1) Participants were randomly selected volunteers. […] None of the patients included in the study had received any topical medication that could cause pupil mydriasis or miosis. […] All procedures followed were in accordance with the ethical standards of the responsible committee on human experimentation.
(§2) The 3% carbachol drops included 50 ppm of benzalkonium chloride.

[2] = system: naturally emmetropic and presbyopic subjects; assay: Example 13 crossover trial, combined vs separate carbachol and brimonidine drops: near visual acuity (Rosenbaum chart, Jaeger notation) (Table 13); type: in vivo, human; details: for NVA 1-h / NVA 2-h / NVA 4-h / NVA 8-h / NVA Pre-treatment: mean ± SD, ten subjects; for NVA Pre-treatment: before treatment
From the text: as §1, §2

presbyopic subjects = details: subjects receiving brimonidine drops
From the text: One hundred and seventy seven presbyopic subjects with a mean age of 49.8±3.9 years (range 41-57 years); 96 males and 81 females were recruited in this study. The participants in the study all gave written informed consent. […] All subjects were in good physical and ocular health and completed a questionnaire to ascertain any contraindications for participation or predisposition to complications (e.g. heart or respiratory conditions, migraines, high myopia, ocular or systemic medications, or ocular surgeries). […] The examination screened for contraindications to the drugs, susceptibility to retinal detachment, ocular pathology, or peripheral retinal degeneration. […] During the study, the subjects were closely monitored and regularly asked to report on any ocular, systemic, or physiological reactions they experienced. […]
Initial pupil size and both near and distance visual acuities were documented before treatment and at 1, 2, 4, 8 and 10 hours after treatment at the same room illumination. Subjects were monitored and subjected to complete ocular examination including visual acuity evaluation and slit-lamp biomicroscopy after one week of treatment and monthly during the first three months to evaluate dosage, satisfaction, adverse effects and complications (for instance, retinal detachment, pigment dispersion, posterior synechiae and intraocular inflammation). […]

myopic presbyopes = details: Group 2
From the text: (§3) The study evaluated in a blind study the efficacy of using of a parasympathomimetic drug of different concentrations together with an alpha agonist to create optically beneficial miosis to temporarily treat different types of presbyopia (emmetropic, myopic and hyperopic).
(§4) One hundred and seventy seven presbyopic subjects with a mean age of 49.8±3.9 years (range 41-57 years); 96 males and 81 females were recruited in this study. The participants in the study all gave written informed consent. […] During the study, the subjects were closely monitored and regularly asked to report on any ocular, systemic, or physiological reactions they experienced. […]
(§5) Initial pupil size and both near and distance visual acuities were documented before treatment and at 1, 2, 4, 8 and 10 hours after treatment at the same room illumination. Subjects were monitored and subjected to complete ocular examination including visual acuity evaluation and slit-lamp biomicroscopy after one week of treatment and monthly during the first three months to evaluate dosage, satisfaction, adverse effects and complications (for instance, retinal detachment, pigment dispersion, posterior synechiae and intraocular inflammation). […] Distance visual acuity was measured using the standard Snellen projector chart. […] Any adverse symptoms and subject satisfaction with near and distance vision were also monitored. […]

hyperopic presbyopes = assay: Example 6 masked study: near visual acuity (Jaeger Eye Chart), Group 3, both eyes (Tables 9, 10)
From the text: as §3, §4, §5

presbyopia subjects [3] = assay: Example 8 dose range studies of carbachol and pilocarpine with or without brimonidine: near LogMAR visual acuity
Protocol: Dose range studies were performed for carbachol and pilocarpine.
Both Groups 1 and 2 received the same pre- and post-treatment work-up and measurements: Age, gender, initial pupil size, and near vision acuity (NVA) were documented. Subjects' NVA was measured post treatment at 1, 2, 4, and 8 hours, at the same room illumination Any adverse symptoms and subject satisfaction with near and distance vision were documented.

[4] = system: naturally emmetropic and presbyopic subjects; details: combination, separate, brimonidine alone, carbachol alone; FIG. 11
Protocol: Participants were volunteers selected at random.
The study used standard Snellen projector chart to measure distance visual acuity. Near visual acuity was assessed at 40 cm using Jaeger (J) Eye Chart. Statistical analysis was performed using the Student's t-test and p value of less than 0.05 was considered statistically significant. Data was expressed as mean, range, and standard deviation (SD).

emmetropic presbyopes = details: Group 1
From the text: as §3, §4, §5

[5] = system: patients suffering from presbyopia; assay: Example 4 preliminary evaluation: near visual acuity after pilocarpine alone or with brimonidine (Table 1 dosages, FIG. 1); type: in vivo, human; details: individual patients
From the text: Initially, 10 patients were selected for preliminary evaluation. […] All six dosages provided some (varying) initial improvement in visual acuity. However, the effect of formulations containing pilocarpine alone appears to wear out fairly quickly whereas it takes longer time for effects of formulations containing both drugs to wear out.

[6] = system: patients suffering from presbyopia; assay: Table 11: pupil diameter after pilocarpine alone or pilocarpine plus brimonidine; type: in vivo, human; details: individual patients
presbyopia subjects [7] = assay: Example 8 dose range studies: adverse symptoms, tolerability and satisfaction survey; type: in vivo, human
From the text: The survey asked the patients whether they would use the drops again.

[8] = Stability of pilocarpine at neutral pH; type: physicochemical; details: needs about pH 5

C[N+](C)(C)CCOC(N)=O [3% carbachol alone, carbachol]
mean pupil size (PS) ([1]; 1 h post-treatment): 2.8±0.3 mm | mean pupil size (PS) ([1]; 2 h post-treatment): 3±0.3 mm | mean pupil size (PS) ([1]; 4 h post-treatment): 3.5±0.3 mm | mean pupil size (PS) ([1]; 8 h post-treatment): 4±0.3 mm | mean pupil size (PS) ([1]; before treatment (baseline)): 4.3±0.5 mm | mean pupil size (target) ([1]; hours 1-8, FIG. 24): never achieved the target pupil size | PS 1-h ([1]; 1 h post-treatment): 2.8 ± 0.3 mm | PS 2-h ([1]; 2 h post-treatment): 3 ± 0.3 mm | PS 4-h ([1]; 4 h post-treatment): 3.5 ± 0.3 mm | PS 8-h ([1]; 8 h post-treatment): 4 ± 0.3 mm | PS Pre-treatment [1]: 4.3 ± 0.5 mm | mean near visual acuity (NVA) ([2]; 1 h post-treatment): 5.5 ± 1 J | mean near visual acuity (NVA) ([2]; 2 h post-treatment): 5.9 ± 0.8 J | mean near visual acuity (NVA) ([2]; 4 h post-treatment): 7 ± 1.2 J | mean near visual acuity (NVA) ([2]; 8 h post-treatment): 7.5 ± 1 J | mean near visual acuity (NVA) ([2]; before treatment (baseline)): 8.6 ± 1.5 J | mean near visual acuity (NVA) (target) ([2]; hours 1-8, Snellen fraction, FIG. 25): never achieved an NVA of ≥20/40 | NVA 1-h ([2]; 1 h post-treatment): 5.5 ± 1 J | NVA 2-h ([2]; 2 h post-treatment): 5.9 ± 0.8 J | NVA 4-h ([2]; 4 h post-treatment): 7 ± 1.2 J | NVA 8-h ([2]; 8 h post-treatment): 7.5 ± 1 J | NVA Pre-treatment [2]: 8.6 ± 1.5 J

Brc1c(NC2=NCCN2)ccc2nccnc12 [Brimonidine 0.2%, brimonidine]
mild burning sensation, number of subjects (presbyopic subjects): 10 subjects | difference in mean NVA before treatment vs any time point after treatment (myopic presbyopes): No statistically significant difference | difference in mean NVA before treatment vs any time point after treatment (hyperopic presbyopes): No statistically significant difference | difference in mean PS before treatment vs any time point after treatment ([1]; P>0.05): no statistically significant difference | miotic effect ([1]; mainly first hour after instillation, light luminance, not statistically significant (P>0.05)): mild miotic effect | PS 1-h ([1]; 1 h post-treatment): 3.95 ± 0.5 mm | PS 2-h ([1]; 2 h post-treatment): 4.2 ± 0.4 mm | PS 4-h ([1]; 4 h post-treatment): 4.3 ± 0.5 mm | PS 8-h ([1]; 8 h post-treatment): 4.3 ± 0.5 mm | PS Pre-treatment [1]: 4.3 ± 0.5 mm | effect on pupil size or NVA ([1]; with 50 ppm BAK): virtually no effect | synergy (presbyopia subjects [3]; in vivo): synergistic with both carbachol and pilocarpine | mean change in near visual acuity (J), comparison of all groups [4]: the least | difference in mean NVA before treatment vs any time point after treatment (emmetropic presbyopes): No statistically significant difference | difference in mean NVA before treatment vs any time point after treatment ([2]; P>0.05): no statistically significant difference | NVA 1-h ([2]; 1 h post-treatment): 7.7 ± 1.3 J | NVA 2-h ([2]; 2 h post-treatment): 8.2 ± 1.3 J | NVA 4-h ([2]; 4 h post-treatment): 8.5 ± 1.4 J | NVA 8-h ([2]; 8 h post-treatment): 8.6 ± 1.5 J | NVA Pre-treatment [2]: 8.6 ± 1.5 J

CC[C@@H]1C(=O)OC[C@@H]1Cc1cncn1C [Pilo Alone]
nVA(j) 1 hr ([5]; Pilo 0.5%): 3 j (2×) and 6 j and 5 j | nVA(j) 2 hrs ([5]; Pilo 0.5%): 5 j (2×) and 3 j (2×) | nVA(j) 4 hrs ([5]; Pilo 0.5%): 5 j (3×) and 3 j | nVA(j) 1 hr ([5]; Pilo 1%): 3 j (2×) and 2 j and 8 j | nVA(j) 2 hrs ([5]; Pilo 1%): 3 j and 2 j (2×) and 8 j | nVA(j) 4 hrs ([5]; Pilo 1%): 5 j (2×) and 3 j and 10 j | Pre-Treatment Near Va ([5]; before treatment): 6 j (4×) and 5 j (4×) and 8 j (2×) and 10 j and 3 j | pupil 1 hr ([6]; Pilo 0.5%): 2.5 and 3.8 and 3 (2×) | pupil 2 hrs ([6]; Pilo 0.5%): 3 and 4 and 2.5 and 3.3 | pupil 4 hrs ([6]; Pilo 0.5%): 3.3 and 4 and 3 and 4.2 | pupil 1 hr ([6]; Pilo 1%): 2.5 (2×) and 1.5 and 3 | pupil 2 hrs ([6]; Pilo 1%): 3 (2×) and 1.5 and 2.5 | pupil 4 hrs ([6]; Pilo 1%): 4 (2×) and 2.5 and 3 | pupil 4 hrs ([6]; Pilo […]): 4 | Pre-Treatment Pupil Diam O.S. ([6]; before treatment, left eye): 4 (2×) and 4.3 and 3.5 (2×) and 5 and 3.9 and 3 and 4.5 (3×) and 5.4 | Pre-Treatment Pupil Diam O.D. ([6]; before treatment, right eye): 4 (3×) and 3.5 (2×) and 5 and 4.3 and 3 and 4.5 (3×) and 5.5

C[N+](C)(C)CCOC(N)=O [carbachol]
tolerability / discomfort vs carbachol concentration (presbyopia subjects [7]; over seven days, FIG. 15): caused some increased discomfort | duration (presbyopia subjects [3]; in vivo): 8 h

CC[C@@H]1C(=O)OC[C@@H]1Cc1cncn1C [pilocarpine]
burning (presbyopia subjects [7]; in vivo): burned | onset of effect (presbyopia subjects [3]; pilocarpine vs carbachol): more immediate effect | duration (presbyopia subjects [3]; pilocarpine vs carbachol, in words): shorter duration | stability at neutral pH [8]: unstable at neutral pH
